Measurements from ChEMBL document CHEMBL5137120, “Modified ent-Abietane Diterpenoids from the Leaves of Suregada zanzibariensis” (J Nat Prod, 2022).

Experiments:
[1] = Cytotoxicity against African green monkey GMK-AH-1 cell assessed as cell growth inhibition at >=100 uM incubated for 3 days by CellTiter96 Aqueous one reagent based assay; assay type: toxicity; details: chlorocebus aethiops, gmk-ah-1, 72 h, time 3 day
[2] = Cytotoxicity against human THP-1 cells assessed as cell growth inhibition incubated for 24 hrs by MTT assay; assay type: toxicity, cell-based

SMILES: CC(C)[C@H]1CC[C@@H]2[C@]1(C)CC[C@]1(C)[C@H]3CC=C4[C@@H](CC[C@H](O)C4(C)C)[C@]3(C)CC[C@@]21C
- Activity [1]: Non-Toxic
- IC50 at 24 h [2]: 1.78 µM

SMILES: C=C1[C@@H](C)CC(=O)[C@@]2(C)[C@@H]3C[C@H]4OC(=O)C(C)=C4C=C3CC[C@]12O
- Activity [1]: Non-Toxic

SMILES: C=C1[C@@H](C)CC(=O)[C@@]2(C)[C@@H]3C[C@H]4OC(=O)C(C)=C4[C@H]4O[C@]43CC[C@]12O
- Activity [1]: Non-Toxic
